target: HIF-PH2 (EGLN1) (Homo sapiens (Human), UniProt Q9GZT9); assay: HIF-PH assay (14CO2 capture, peptide-dependent turnover); format: biochemical; conditions: enzyme inhibition against HIF-PH2; peptide-dependent percent turnover
From the text: Ketoglutaric acid α-[1-^14C]-sodium salt, alpha-ketoglutaric acid sodium salt, and HPLC purified peptide may be obtained from commercial sources, e.g., Perkin-Elmer (Wellesley Mass.), Sigma-Aldrich, and SynPep Corp. (Dublin Calif.), respectively. […] For example, a HIF peptide for use in the HIF-PH assay is [methoxycoumarin]-[…]-amide. HIF-PH, e.g., HIF-PH2 (EGLN1), can be expressed in, e.g., insect Hi5 cells, and partially purified, e.g., through a SP ion exchange chromatography column. […] Reactions are initiated by addition of HIF-PH enzyme.
The peptide-dependent percent turnover is calculated by subtracting percent turnover in the absence of peptide from percent turnover in the presence of substrate peptide. Percent inhibition and IC50 are calculated using peptide-dependent percent turnover at given inhibitor concentrations. Calculation of IC50 values for each inhibitor is conducted using GraFit software (Erithacus Software Ltd., Surrey UK).
Representative compounds of the disclosure were analyzed using the HIF-PH assay described above.

HIF-PH2 (EGLN1), sequence (Q9GZT9 whole entry): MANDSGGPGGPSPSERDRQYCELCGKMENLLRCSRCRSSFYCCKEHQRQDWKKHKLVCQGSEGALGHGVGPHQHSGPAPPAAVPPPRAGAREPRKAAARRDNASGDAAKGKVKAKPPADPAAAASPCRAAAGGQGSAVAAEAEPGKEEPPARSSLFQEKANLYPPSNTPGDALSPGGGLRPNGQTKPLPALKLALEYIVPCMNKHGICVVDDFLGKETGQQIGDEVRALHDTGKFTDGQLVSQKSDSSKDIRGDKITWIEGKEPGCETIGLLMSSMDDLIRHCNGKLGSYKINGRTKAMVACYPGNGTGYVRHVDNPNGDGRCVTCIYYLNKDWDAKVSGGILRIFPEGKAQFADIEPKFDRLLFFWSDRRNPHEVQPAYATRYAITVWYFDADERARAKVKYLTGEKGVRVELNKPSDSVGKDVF

N#Cc1nc(C(=O)NCc2ccnnc2)c(O)c2ccn(Cc3ccccc3)c(=O)c12 [Example 60, 7-Benzyl-1-cyano-4-hydroxy-8-oxo-7,8-dihydro-[2,7]naphthyridine-3-carboxylic acid (pyridazin-4-ylmethyl)-amide] and N#Cc1nc(C(=O)NCc2ccncc2)c(O)c2ccn(Cc3ccccc3)c(=O)c12 [Example 48, 7-Benzyl-1-cyano-4-hydroxy-8-oxo-7,8-dihydro-[2,7]naphthyridine-3-carboxylic acid (pyridin-4-ylmethyl)-amide] are within 1.5-fold of each other in IC50: 177 µM for the first, 195 µM for the second.

O=C(O)CCNC(=O)c1nc(-c2ccc(C(F)(F)F)nc2)c2c(cc(-c3ccccc3)c(=O)n2Cc2ccccc2)c1O [Example 180, 3-{[1-Benzyl-5-hydroxy-2-oxo-3-phenyl-8-(6-trifluoromethyl-pyridin-3-yl)-1,2-dihydro-[1,7]naphthyridine-6-carbonyl]-amino}-propionic acid] and O=C(O)CCNC(=O)c1nc(-c2nccs2)c2c(cc(-c3ccccc3)c(=O)n2Cc2ccccc2)c1O [Example 195, 3-[(1-Benzyl-5-hydroxy-2-oxo-3-phenyl-8-thiazol-2-yl-1,2-dihydro-[1,7]naphthyridine-6-carbonyl)-amino]-propionic acid] are within 1.5-fold of each other in IC50: 107 µM for the first, 138 µM for the second.

O=C(O)CCNC(=O)c1ncc2ccn(Cc3ccccc3)c(=O)c2c1O [Example 54, 3-[(6-Benzyl-4-hydroxy-5-oxo-5,6-dihydro-[2,6]naphthyridine-3-carbonyl)-amino]-propionic acid] and O=C(O)CCNC(=O)c1ncc2ccc(=O)n(Cc3ccccc3)c2c1O [Example 70, 3-[(1-Benzyl-8-hydroxy-2-oxo-1,2-dihydro-[1,6]naphthyridine-7-carbonyl)-amino]-propionic acid] are within 1.5-fold of each other in IC50: 181 µM for the first, 167 µM for the second.

CCNC(=O)NCCNC(=O)c1ncc2c(cc(-c3ccccc3)c(=O)n2Cc2ccccc2)c1O [Example 110, 1-Benzyl-5-hydroxy-2-oxo-3-phenyl-1,2-dihydro-[1,7]naphthyridine-6-carboxylic acid [2-(3-ethyl-ureido)-ethyl]-amide] and Cc1ncccc1-c1nc(C(=O)NCCC(=O)O)c(O)c2cc(-c3ccccc3)c(=O)n(Cc3ccccc3)c12 [Example 178, 3-{[1-Benzyl-5-hydroxy-8-(2-methyl-pyridin-3-yl)-2-oxo-3-phenyl-1,2-dihydro-[1,7]naphthyridine-6-carbonyl]-amino}-propionic acid] are within 1.5-fold of each other in IC50: 200 µM for the first, 199 µM for the second.

N#Cc1nc(C(=O)NC2CC2)c(O)c2ccn(Cc3ccccc3)c(=O)c12 [Example 39, 7-Benzyl-1-cyano-4-hydroxy-8-oxo-7,8-dihydro-[2,7]naphthyridine-3-carboxylic acid cyclopropylamide] and CCCNC(=O)CCCNC(=O)c1nc(C#N)c2c(=O)n(Cc3ccccc3)ccc2c1O [Example 73, 7-Benzyl-1-cyano-4-hydroxy-8-oxo-7,8-dihydro-[2,7]naphthyridine-3-carboxylic acid (3-propylcarbamoyl-propyl)-amide] cannot be ordered by IC50: greater than 200 µM for the first, greater than 200 µM for the second.

CS(=O)(=O)NCCNC(=O)c1ncc2ccc(=O)n(Cc3ccccc3)c2c1O [Example 111, 1-Benzyl-8-hydroxy-2-oxo-1,2-dihydro-[1,6]naphthyridine-7-carboxylic acid (2-methanesulfonylamino-ethyl)-amide] and CN(CCNC(=O)c1ncc2ccc(=O)n(Cc3ccccc3)c2c1O)S(C)(=O)=O [Example 105, 1-Benzyl-8-hydroxy-2-oxo-1,2-dihydro-[1,6]naphthyridine-7-carboxylic acid [2-(methanesulfonyl-methyl-amino)-ethyl]amide] cannot be ordered by IC50: greater than 200 µM for the first, greater than 200 µM for the second.

First: COc1ccc(Cn2ccc3c(O)c(C(=O)NCc4ccc(F)cc4)ncc3c2=O)c(OC)c1 [Example 78, 7-(2,4-Dimethoxy-benzyl)-4-hydroxy-8-oxo-7,8-dihydro-[2,7]naphthyridine-3-carboxylic acid 4-fluoro-benzylamide]
Second: C[C@@H](c1ccccc1)n1c(=O)c(-c2ccccc2)cc2c(O)c(C(=O)NCCC(=O)O)nc(-c3cccnc3)c21 [Example 175, (S)-3-{[5-Hydroxy-2-oxo-3-phenyl-1-(1-phenyl-ethyl)-8-pyridin-3-yl-1,2-dihydro-[1,7]naphthyridine-6-carbonyl]-amino}-propionic acid]
The IC50 of the first is higher: greater than 200 µM for the first, 200 µM for the second. The second is the more potent here.

O=C(O)CCNC(=O)c1nc(-c2ccncc2)c2c(cc(-c3ccccc3)c(=O)n2CC2CCCCC2)c1O [Example 198, 3-[(1-Cyclohexylmethyl-5-hydroxy-2-oxo-3-phenyl-8-pyridin-4-yl-1,2-dihydro-[1,7]naphthyridine-6-carbonyl)-amino]-propionic acid] showed an IC50 of 200 µM.

From US8921389B2, “Naphthyridine derivatives as inhibitors of hypoxia inducible factor (HIF) hydroxylase” (Fibrogen, Inc., priority 2011, dated 2014)
